Assay results: paper PMC12397098, “3-Monothiopomalidomide, a new immunomodulatory imide drug (IMiD), blunts inflammation and mitigates ischemic stroke in the rat” (GeroScience, 2025)
Where two headings read alike, the source gives them in different places.

Experiments:
Serotonin 5-HT3 receptor = target: T1, Serotonin 5-HT3 receptor (Homo sapiens, UniProt P46098); test: PDSP radioligand binding; conditions: read-out: 3-MP concentration required to induce 50% inhibition of PDSP radioligand binding
T1 construct: NIMH Psychoactive Drug Screening Program (PDSP)
Procedure: (§1) To evaluate potential binding at classical neurological drug targets, 3-MP and 3,6’-DP were submitted to the National Institute on Mental Health (NIMH) Psychoactive Drug Screening Program (PDSP: Univ. N Carolina, Chapel Hill, NC, USA < https://pdspdb.unc.edu/pdspweb/ >) as powdered samples in the provided vials. The materials were then prepared at the PDSP in 10% DMSO, subjected to multiple assay screens, and processed as per the PDSP Assay Protocol Book (Version 3, March 2018). Compounds that exceeded an initial 10 uM binding threshold were then delegated for secondary dose–response analysis. This screen comprised a 45-target comprehensive panel of common brain receptor and transporter drug targets.

[1] = target: Benzodiazepine BZP receptor; test: PDSP radioligand binding; conditions: read-out: 3-MP concentration required to induce 50% inhibition of PDSP radioligand binding
Procedure: as §1

[2] = Brain entry in rats (brain and plasma at 5 h); type: in vivo; conditions: male, Fischer 344, rat, brain
Procedure: The animals were euthanized at 5 h post-dosing, and plasma and a brain sample were taken, frozen to − 80 °C, and later assayed for 3-MP by LC–MS/MS.
LC–MS/MS analysis was performed with a Vanquish Flex UHPLC (Thermo Scientific, Waltham MA, USA) and an Orbitrap Exploris 240 mass spectrometer (Thermo Scientific). Samples were separated on a C18 UHPLC column (100 mm × 2.1 mm, 3 μm; Thermo Scientific). The mobile phase A for LC separation was 0.1% formic acid and the mobile phase B was 0.1% formic acid in methanol. The chromatography gradient was initiated at 95% A and 5% B at zero time. This was continued for 1 min and, thereafter, linearly changed to 5% A and 95% B by 9 min. This was then maintained for a further 3 min. The flow rate was 0.3 mL/min, and the injection volume was 2 μl. Mass spectra were acquired using the data-dependent Top 4 MS2 (ddMS2) method with a mass scan (100–1000 m/z) and 120,000 MS resolution.

[3] = Pharmacokinetics in the rat, I.V. and P.O.; type: in vivo
Procedure: To evaluate the metabolism of 3-MP, ex vivo plasma and liver homogenate studies were performed across species (rat and human), and in vivo pharmacokinetic studies were performed in rats following intravenous (I.V.) and oral (P.O.) administration of 3-MP (5 mg/kg) to time-dependently follow its disappearance from the plasma compartment.
Fig. 5 3-MP pharmacokinetics. 3-MP was administered to rats via the intravenous (I.V.) and oral (P.O.) routes, and time-dependent plasma levels were obtained and subjected to LC–MS/MS analysis (n = 3/group). Pharmacokinetic profile of 3-MP following a 5 mg/kg dose by either the I.V. or P.O route. Time-dependent plasma concentrations of 3-MP (n = 3/group)

human PBMCs = test: LDH in media of LPS-challenged human PBMCs (cellular toxicity); type: cell-based; conditions: 10 ng/ml LPS, 24 h, 3-MP 0 to 30 μM, vs LPS alone
Procedure: Human peripheral blood mononuclear cells (PBMCs), purchased from ATCC (Cat no. PCS-800–011, Lot no. 81215231, Manassas, VA, USA), were washed with ice-cold HBSS (ATCC 30–2213) containing 10% fetal bovine serum (FBS: ATCC 30–2020) and used for the experiment directly. The washed cells were suspended and maintained in RPMI media supplemented with 10% FBS, penicillin 100 U/mL, and streptomycin 100 µg/mL at 37 °C and 5% CO2. Approximately 5 × 10^5 cells were seeded into 24-well plates and allowed to equilibrate for 2 h. Pomalidomide or 3-MP, dissolved in 100% tissue culture grade dimethylsulfoxide (DMSO: Sigma Aldrich, St Louis, MO, USA), was then added to the wells. The final concentrations of drugs were 0.0, 0.6, 1.0, 10, 30, and 60 µM (n = 3–4 for each group). At 1 h after initiation of treatment, the cells were challenged with lipopolysaccharide (LPS, Sigma Aldrich, E.Coli 055:B5, Cat no. L4005-100MG, Lot no. 0000218759, Endotoxin Unit: 500,000 EU/mg, at a concentration of 10 ng/mL), and the media was collected after a further 24 h for evaluation of lactate dehydrogenase (LDH) activity as a marker of drug-induced cellular toxicity and concentrations of nitrite (In Vitro Toxicology Assay Kit, Lactic Dehydrogenase based, Promega, Cat no. G7891, Madison, WI, USA) (Griess Reagent System, Promega, Cat no. G2930) and TNF-α (human TNF-α ELISA MAX™ Deluxe Set Cat no. […]

[4] = iv, rat plasma, I.V. bolus 5 mg/kg

T1 sequence (P46098 24-478): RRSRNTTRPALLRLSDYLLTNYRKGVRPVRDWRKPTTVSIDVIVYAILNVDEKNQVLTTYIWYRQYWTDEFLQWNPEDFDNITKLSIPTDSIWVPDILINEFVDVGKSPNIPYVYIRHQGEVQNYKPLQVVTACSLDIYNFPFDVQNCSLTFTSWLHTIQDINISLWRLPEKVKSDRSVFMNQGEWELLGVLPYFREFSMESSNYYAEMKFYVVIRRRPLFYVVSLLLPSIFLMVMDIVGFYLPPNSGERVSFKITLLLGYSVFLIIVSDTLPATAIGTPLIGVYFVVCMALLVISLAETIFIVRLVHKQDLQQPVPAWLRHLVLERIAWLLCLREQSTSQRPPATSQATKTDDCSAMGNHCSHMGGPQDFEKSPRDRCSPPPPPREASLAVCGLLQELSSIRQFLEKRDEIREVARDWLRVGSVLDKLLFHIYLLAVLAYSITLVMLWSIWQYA

Nc1cccc2c1C(=S)N(C1CCC(=O)NC1=O)C2=O (stereo not shown) [3-MP, 3-Monothiopomalidomide]
IC50 (Serotonin 5-HT3 receptor): > 10 µM | IC50 [1]: > 10 µM | Kp at 5 h ([2]; ip, 13.25 mg/kg, 13.25 mg/kg I.P., read-out: Brain/plasma ratio): 0.52 | Kp at 5 h ([2]; ip, 26.5 mg/kg, 26.5 mg/kg I.P., read-out: Brain/plasma ratio): 0.61 | Kp at 5 h ([2]; other: I.P. or P.O., 13.25 or 26.50 mg/kg I.P. or P.O., read-out: brain concentrations as % of concomitant plasma levels): 0.51 to 0.61 | Kp at 5 h ([2]; other: I.P. or oral (P.O.), across I.P. and P.O. doses, read-out: brain/plasma concentration ratio): 0.5 to 0.6 | Kp at 5 h ([2]; po, 26.5 mg/kg, 26.5 mg/kg P.O., read-out: Brain/plasma ratio): 0.51 | AUC(0-inf) [3, 4]: 15200 ng·h/mL | AUC(0-t) [3, 4]: 15100 ng·h/mL | C0 [3, 4]: 8150 ng/mL | clearance ([3]; plasma, iv, rat, I.V. bolus 5 mg/kg): 5.65 mL/min/kg | Vd ([3]; plasma, iv, rat, I.V. bolus 5 mg/kg, read-out: Vdss): 0.693 L/kg | AUC(0-inf) ([3]; po, rat plasma, P.O. 5 mg/kg): 5860 ng·h/mL | AUC(0-t) ([3]; po, rat plasma, P.O. 5 mg/kg): 5560 ng·h/mL | Cmax ([3]; po, rat plasma, P.O. 5 mg/kg): 1020 ng/mL | T1/2 ([3]; rat plasma, P.O. 5 mg/kg, 5 mg/kg): 3.21 h | half-life ([3]; rat, plasma, iv, 5 mg/kg, rat plasma, I.V. bolus 5 mg/kg): 1.56 h | bioavailability ([3]; rat, plasma, oral, 5 mg/kg, rat, P.O. vs I.V., 5 mg/kg): ~38.5% | half-life ([3]; rat, plasma, po, 5 mg/kg, rat plasma, P.O. 5 mg/kg): 3.2 h | Tmax ([3]; rat, plasma, po, 5 mg/kg, rat plasma, P.O. 5 mg/kg, read-out: Tmax): 1.67 h | Tmax ([3]; rat, plasma, po, 5 mg/kg, rat, oral gavage 5 mg/kg, read-out: time of peak concentration in plasma (converted)): 1.67 h | LDH media levels (human PBMCs): without elevating
